Assay results taken from article PMC11988454, “Discovery of synthetic small molecules targeting the central regulator of Salmonella pathogenicity” (Science Advances, 2025).

Columns and labels:
[1] = tested on: T3SS-2 (SseF-HiBiT secretion); assay: SseF-HiBiT injection assay in LgBiT-expressing RAW 264.7 macrophages; assay type: cell-based, S. Typhimurium; settings: C26 100 μM, inside RAW 264.7 macrophages, 7 hours after infection, MOI 10
Protocol: SseF injection assay was performed using the split-Nanoluc (HiBiT/LgBiT) system as described for SipA. In a white 96-well plate (NUNC) with optical bottom, 10^4 LgBiT-expressing RAW 264.7 macrophages ([65]) were seeded in 100 μl of DMEM, 24 hours before the infection. The strain harboring the plasmid-encoded sseF-HiBiT and the isogenic strain ΔssaV were grown in LB-NaCl at 37°C at 180 rpm until an OD600 of 0.9. Bacteria were washed twice with HBSS (Serva) and then used to infect preseeded cells on a 96-well plate with an MOI of 10. The plate was centrifuged at 300g for 3 min and then incubated for 30 min to allow invasion. Afterward, macrophages were washed with DMEM and incubated for 1 hour in DMEM supplemented with gentamicin (100 μg/ml) to eliminate noninvading bacteria. The medium was replaced by DMEM with gentamicin (16 μg/ml), supplemented with either DMSO (1%) or C26 at different concentrations. Cells were incubated at 37°C with 5% (v/v) CO2 for 5.5 hours (total infection time of 7 hours) and then washed twice with 1x PBS before luminescence measurements were carried out following the manufacturer’s instructions.

[2] = molecular target: T1, HilD dimer (Salmonella typhimurium, UniProt P0CL08); assay: BS3 cross-linking of HilD; assay type: biochemical, S. Typhimurium; settings: oleic acid 50 and 100 μM; C26 up to 200 μM
T1 construct: His6-SUMO (N, cleaved yes); made in house; host or cells: E. coli C41(DE3)
T1 sequence (P0CL08 whole entry): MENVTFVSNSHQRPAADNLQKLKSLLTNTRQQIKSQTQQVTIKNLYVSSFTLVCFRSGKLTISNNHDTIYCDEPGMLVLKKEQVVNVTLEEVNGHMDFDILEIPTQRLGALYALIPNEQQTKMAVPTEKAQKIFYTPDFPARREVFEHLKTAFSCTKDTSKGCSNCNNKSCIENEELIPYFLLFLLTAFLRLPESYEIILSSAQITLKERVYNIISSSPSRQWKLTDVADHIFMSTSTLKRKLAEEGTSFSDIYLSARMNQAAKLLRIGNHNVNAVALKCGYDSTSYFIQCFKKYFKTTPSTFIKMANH
Protocol: BS^3 cross-linking of HilD was performed as previously described ([39]). In summary, HilD (10 μM) was first incubated with C26 or oleic acid in SEC buffer for 20 min at r.t., with a final DMSO concentration of 1% (v/v). HilD was then cross-linked by incubation with 0.2 mM BS^3 (Thermo Fisher Scientific, Pierce, A39266) at r.t. for 1 hour, before the reaction was quenched by the addition of 50 mM Tris (pH 7.5). Samples were analyzed using SDS-PAGE and visualized by silver staining.

[3] = molecular target: T2, HilC (Salmonella typhimurium, UniProt E1WAB2); assay: nanoDSF thermal stability, HilC; assay type: binding, S. Typhimurium
T2 construct: His6 followed by TEV protease cleavage site (N, cleaved yes); made in house; host or cells: E. coli C41(DE3)
T2 sequence (E1WAB2 whole entry): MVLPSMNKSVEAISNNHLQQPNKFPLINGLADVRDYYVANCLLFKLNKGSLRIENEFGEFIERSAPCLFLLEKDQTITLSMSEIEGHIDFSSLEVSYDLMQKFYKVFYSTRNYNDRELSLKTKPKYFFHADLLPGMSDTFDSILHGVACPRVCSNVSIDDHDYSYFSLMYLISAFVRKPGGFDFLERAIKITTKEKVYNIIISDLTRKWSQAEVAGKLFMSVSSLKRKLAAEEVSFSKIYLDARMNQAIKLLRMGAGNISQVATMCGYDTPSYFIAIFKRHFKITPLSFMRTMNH
Protocol: Thermal stability of proteins was determined using nanoDSF, with runs performed on a Prometheus NT.48 (NanoTemper Technologies). A twofold serial dilution series of C26 was prepared in DMSO. C26 was added to HilD or HilC (5 μM) in SEC buffer, giving a final DMSO concentration of 1% (v/v). Samples were incubated for >20 min at r.t. and centrifuged for 2 min prior to loading of standard capillaries (no. PR-C002). Samples were heated from 20° to 80°C with a temperature gradient of 0.5°C min^−1. Melting temperatures were calculated from changes in the fluorescence ratio (350/330 nm), using PR.Stability Analysis v1.0.3 and a temperature range of 40° to 70°C for curve fitting. Data analysis was performed using Prism 8.4 (GraphPad). The change in HilD melting temperature, Tm, was fitted as a function of ligand concentration, using Eqs. 1 and 2 to yield apparent affinity (Kd,app) values Tm{[L]0}=Tm,lower+(Tm,upper−Tm,lower)*(1−α{[L]0}) (1) α{[L]0}=[P]t−Kd−[L]t+{[P]t+[L]t+Kd,app}^2−{4[P]t[L]t}/2[P]t (2) where [P]t and [L]t are the total protein and ligand concentrations, respectively.

[4] = tested on: HilC and RtsA; assay: Whole-cell PhilA activation by rhamnose-induced hilC or rtsA in ΔhilD backgrounds; assay type: cell-based, S. Typhimurium; settings: C26 100 μM, rhamnose 2 mM
Text: Next, we investigated the selectivity of C26 for HilD using the whole-cell PhilA activation assay. In the absence of HilD, the pool of HilC and RtsA is insufficient to activate the expression of hilA. Therefore, assessing the sensitivity of HilC and RtsA to C26 requires PhilA to be activated in a HilD-independent manner. To create such a condition, we used a plasmid-encoded hilC or rtsA under the control of a rhamnose-inducible promoter.
A whole-cell reporter gene assay was used to quantify HilD transcriptional activity. Strain PhilA-sfGFP and the isogenic ΔhilD PhilA-sfGFP were used for this purpose. Cultures were performed in 1 ml of LB supplemented with 0.3 M NaCl. Compounds at different concentrations or 1% (v/v) DMSO were added to the corresponding tubes. Cultures were incubated at 37°C and 180 rpm for 5 hours. Cells were pelleted, resuspended in 100 μl of PBS, and then transferred into a 96-well black clear-bottom plate (Thermo Fisher Scientific, USA). Fluorescence intensity was measured with a Tecan Spark microplate reader with an excitation wavelength of 485 nm and an emission wavelength of 510 nm. Dose-response curves and IC50 values were calculated using CDD Vault.

CN(CC(=O)NCc1ccc2c(c1)OCO2)Cc1ccc(Br)s1 [C26, N-(benzo[d][1,3]dioxol-5-ylmethyl)-2-{[(5-bromothiophen-2-yl)methyl](methyl)amino}acetamide]
SseF-HiBiT secretion, % of the control [1]: 37%
levels of cross-linked HilD dimer [2]: did not affect the levels of cross-linking
thermal stability of HilC [3]: no effect on the thermal stability
PhilA activation with hilC and/or rtsA as sole activators [4]: did not lead to a reduction of PhilA activation
